One compound from patent US20160331754A1, “THERAPIES FOR TREATING CANCERS” (GILEAD SCIENCES, INC., priority 2014, published 2016) can be followed below.

For series [1], the system named is p-AKT Ser473. The experiment in a line: Flow cytometry, TPO-activated AKT phosphorylation in CD34+ progenitor cells from MF patients. The settings on record: for p-AKT (table title: percentage of Annexin-V positive cells): cells from Compound A-treated MF patients; for normalized percentage of TPO-activated AKT phosphorylation (p-AKT): TPO-treated vehicle=100. It counts as cell-based, human. On the procedure: (§1) PBMCs were isolated from whole blood of myelofibrosis (MF) patients who had not received treatments (i.e. naïve patients) or received ruxolitinib (i.e. rux-treated patients). The cells were treated with 0.02, 0.2, or 2.0 μM of Compound B or vehicle (0.1% DMSO in 0.1% FBS/RPMI) for 2 hours at 37° C. The cells were then fixed, permeabilized, and stained for FACS analysis. Antibodies specific to p-AKT Ser473 and pS6RP Ser235/236 were used to detect AKT phosphorylation (p-AKT) and S6RP phosphorylation (p-S6RP) in CD34^+/CD3^−/CD14^−/CD19/CD66^− (BD Biosciences) gated cells using flow cytometry. The percentage of basal (i.e. untreated with TPO) AKT and S6RP phosphorylation were normalized to vehicle control. A two-tailed paired t-test (GraphPad Prism) was used to calculate p-values. Values of p<0.05 were considered significant.
Also, PBMC cells from naïve or ruxolitinib treated patients were isolated and treated with Compound B and with TPO as described above. The percentage of TPO-activated AKT and S6RP phosphorylation were normalized to those of TPO-treated vehicle (“no TPO” values in Table 4). […] Also, the inhibition to PI3K signaling was dose-dependent to Compound B.
(§2) Similar studies were conducted with PI3K inhibitors Compounds C and D. PBMC from MF patients had received ruxolitinib (rux) and MF patient had received Compound A. The cells were treated with Compounds C or D at 0, 20.0, 200.0, 2000.0 nM for 2 hours at 37° C. Cells were treated with TPO for 10 minutes. The percentage of basal p-AKT and p-S6RP levels were normalized to vehicle control and those of TPO-treated were normalized to TPO-treated vehicle control. The PI3Kδ inhibitors Compound C is referred by the chemical names of (S)-2-(1-((9H-purin-6-yl)amino)ethyl)-6-fluoro-3-phenylquinazolin-4(3H)-one.
For orientation: In flow cytometry, cells or beads pass a laser one at a time.

The nature of series [2]: Plasma concentration in patient at clinical dose. It counts as in vivo, human. The settings on record: clinical dose 150 mg, twice a day.
The subject of series [3] is p-AKT Ser473. The experiment in a line: Flow cytometry, basal AKT phosphorylation in CD34+ progenitor cells from MF patients. It counts as cell-based, human. The settings on record: one line per patient, vehicle=100. On the procedure:
as §1, §2

In series [4] the test system is pS6RP Ser235/236. Nature of the series: Flow cytometry, basal S6RP phosphorylation in CD34+ progenitor cells from MF patients. The settings on record: data not shown. It counts as cell-based, human. The procedure: as §1, §2

Where “and” joins values, the source holds several entries; their conditions need not be identical. Equal values may be shown once.

Consider `CC[C@H](Nc1ncnc2[nH]cnc12)c1nc2cccc(F)c2c(=O)n1-c1ccccc1` [Compound B, (S)-2-(1-((9H-purin-6-yl)amino)propyl)-5-fluoro-3-phenylquinazolin-4(3H)-one], for which the “p-AKT (table title: percentage of Annexin-V positive cells)” value was 56% and 74% and 51% in series [1] (0.02 μM, column 0 = 100); 49% and 71% and 51% in series [1] (0.2 μM). The “normalized percentage of TPO-activated AKT phosphorylation (p-AKT)” value in series [1] (0.02 μM, naïve MF patients, one line per patient) was 43% and 60% and 58%; in series [1] (0.02 μM, rux-treated MF patients) it was 59% and 60% and 78% and 55% and 57%; in series [1] (0.2 μM, naïve MF patients), 30% and 32% and 41%; in series [1] (0.2 μM, rux-treated MF patients), 39% and 52% and 55% and 57% and 36% and 33%; in series [1] (2.0 μM, naïve MF patients), 28% and 32% and 27%. Also, the “maximal average plasma concentration (Cmax), adjusted for protein binding” value in series [2] was 256 nM. The “normalized percentage of basal AKT phosphorylation (p-AKT)” value was 99% and 102% and 83% and 88% and 84% in series [3] (0.02 μM 2 h, naïve MF patients); 88% and 89% (2×) and 91% and 57% and 96% and 100% in series [3] (0.02 μM 2 h, rux-treated MF patients); 64% and 127% and 75% and 76% and 81% and 72% in series [3] (0.2 μM 2 h, naïve MF patients); 85% and 78% and 81% and 82% (2×) and 52% and 87% in series [3] (0.2 μM 2 h, rux-treated MF patients); 55% and 96% and 66% (2×) and 70% and 47% in series [3] (2 μM 2 h, naïve MF patients); 69% and 77% and 83% and 84% and 43% and 98% and 79% in series [3] (2 μM 2 h, rux-treated MF patients). Further, the “basal p-S6RP level vs untreated cells” value in series [4] is listed as “reduced levels”.
